Measured values: ChEMBL document CHEMBL1156553, “Prenylated dihydrochalcones from Boronia bipinnata that inhibit the malarial parasite enzyme target hemoglobinase II” (J Nat Prod, 2008)

Assay: Inhibition of recombinant hemoglobinase 2

Row | Compound | IC50 [µM]
1 | CC(C)=CCC/C(C)=C/CC/C(C)=C/Cc1cc(CCC(=O)c2c(O)cc(O)cc2O)ccc1O [BIPINNATONE A] | 64
2 | CC(C)=CCC/C(C)=C/Cc1cc(CCC(=O)c2c(O)cc(O)cc2O)ccc1O [BIPINNATONE B] | 51
3 | CC(C)CC(=O)N[C@H](C(=O)N[C@H](C(=O)N[C@@H](CC(C)C)[C@@H](O)CC(=O)N[C@@H](C)C(=O)N[C@@H](CC(C)C)[C@@H](O)CC(=O)O)C(C)C)C(C)C [PEPSTATIN] | 0.003
